By IC50 is commonly meant the point on the concentration scale where inhibition reaches its midpoint. Low values mean greater potency in that assay, high ones weaker potency in that assay.

The experiment has as its system Plasmodium falciparum. The experiment is described as follows: microbe, parasite or virus in culture. The following applies: NF54.
Description: Antimicrobial activity against Plasmodium falciparum NF54
`CCCCOC1(C)CC(C)(C)OO1` (stereo unspecified) registered an IC50 of over 10 µM.

For `CC1(C)CC(C)(OCC23CC4CC(CC(C4)C2)C3)OO1` (stereo unspecified), the midpoint of inhibition, the IC50, lay at 0.29 µM. In other words, the sub-micromolar range. In turn, `CC1(OCCc2ccccc2)CC2(CCCCC2)OO1` (stereo unspecified) returned an IC50 of 0.009 µM. This IC50 is about 32-fold lower than that of the compound before.

In the case of `CC1(OCC23CC4CC(CC(C4)C2)C3)CC2(CCCCC2)OO1` (stereo unspecified), the IC50 was found to be 0.035 µM. The same measure for `COC1(Cc2ccccc2)CC2(CCCCC2)OO1` (stereo unspecified): 0.34 µM; for `COC1(Cc2ccccc2)CC(C)(C)OO1` (stereo unspecified): 0.97 µM. `COC1(C2CCCCC2)CC2(CCCCC2)OO1` (stereo unspecified) showed an IC50 of 0.0092 µM. The same measure for `CCCCC1(C)CC(C)(OCCC)OO1` (mixture of isomers): over 4 µM; for `CCCCC1(C)CC(C)(OCC23CC4CC(CC(C4)C2)C3)OO1` (mixture of isomers): 0.14 µM. The value for `CCCCC1(C)CC(C)(OCCc2ccccc2)OO1` (mixture of isomers) was 0.076 µM; that for `C[C@H]1[C@H](OC(=O)CCC(=O)O)O[C@@H]2O[C@@]3(C)CC[C@H]4[C@H](C)CC[C@@H]1[C@@]24OO3` [ARTESUNATE] was 0.0025 µM.

For the origin of these results see ChEMBL document CHEMBL2176898, “3-Alkoxy-1,2-Dioxolanes: Synthesis and Evaluation as Potential Antimalarial Agents” (ACS Med Chem Lett, 2011).
